Target: ITK enzyme (ITK FL, N-Flag and C-His tagged) (Homo sapiens (Human), UniProt Q08881)
Assay: ITK enzyme assay (IL-2-inducible T-cell kinase activity)
Format: biochemical
Settings: geometric mean of count n
Experimental: IL-2-Inducible T-Cell Kinase (ITK) Activity, IC50 (nM)
ITK activity was determined by measuring the effect of a test compound in an ITK enzyme assay.
1.0 M HEPES Buffer pH 7.5 solution was prepared as follows: 238.3 g HEPES free acid (Sigma) and 800 mL of water were combined, and the mixture was stirred until complete dissolution. The pH was adjusted to 7.5 via titration with 5N NaOH and the volume adjusted to 1000 mL. The solution was filtered and sterilized.
ITK assay buffer was prepared as follows: 50 mL of HPLC-grade water was treated with 2 mL of 1.0 M HEPES Buffer, 500 μL of 2% Gelatin (Sigma), 1.0 mL of aqueous MgCl2 solution (1.0 M), and 1.0 mL of aqueous glutathione solution (0.5 M), and the solution was mixed. The solution was brought to 99 mL in a graduated cylinder by addition of water and sterilized through a 0.2 μm filter. 0.1 mL of Brij-35™ Surfact-Amps™ Detergent Solution (10% w/v aqueous solution, ThermoFisher) and 1.0 mL of ATP (Teknova, 100 mM) were added and the solution was mixed.
The resulting solution was stored on ice. 30 Minutes prior to use, the enzyme solution was removed from ice and equilibrated to RT by incubation in a RT water bath.
Preparation of 4×ITK substrate solution was as follows: 50 mL of ITK assay buffer was treated with 100 μL of BTK peptide (China Peptide Company, 2 mM stock solution in DMSO). The tube was capped, mixed by gently inverting the tube, and then stored on ice. 30 Minutes prior to use, the substrate solution was removed from ice and equilibrated to RT by incubation in a RT water bath.
At the time of assay, 7.5 μL of the 1.33×ITK enzyme solution was added to plate wells containing 0.1 μL of varying concentrations of test compound in DMSO. The plate was incubated 30 min at RT. The plate wells were each treated with 2.5 uL of the 4×ITK substrate solution and the plate was sealed (TopSeal™, Perkin Elmer). The plate was spun at 1000 rpm for 30 sec and then incubated for 60 min at RT. The seal was removed, and each well was treated with 10 μL of Stop/Detect Buffer (20 mM HEPES pH 7.5, 0.01% gelatin, 1 nM LANCE PT66 (Perkin Elmer), 16.5 μg/ml Surelight APC (Perkin Elmer), 10 mM EDTA, 250 mM NaCl). The plate was again covered and was spun at 1000 rpm for 30 seconds. The plate was allowed to incubate overnight at RT and in a closed carrier to reduce dehydration. The seal was removed, and the fluorescence was read with a plate reader with an excitation wavelength of […] and an emission wavelength of 615 nm.

ITK enzyme (ITK FL, N-Flag and C-His tagged), sequence (Q08881 whole entry): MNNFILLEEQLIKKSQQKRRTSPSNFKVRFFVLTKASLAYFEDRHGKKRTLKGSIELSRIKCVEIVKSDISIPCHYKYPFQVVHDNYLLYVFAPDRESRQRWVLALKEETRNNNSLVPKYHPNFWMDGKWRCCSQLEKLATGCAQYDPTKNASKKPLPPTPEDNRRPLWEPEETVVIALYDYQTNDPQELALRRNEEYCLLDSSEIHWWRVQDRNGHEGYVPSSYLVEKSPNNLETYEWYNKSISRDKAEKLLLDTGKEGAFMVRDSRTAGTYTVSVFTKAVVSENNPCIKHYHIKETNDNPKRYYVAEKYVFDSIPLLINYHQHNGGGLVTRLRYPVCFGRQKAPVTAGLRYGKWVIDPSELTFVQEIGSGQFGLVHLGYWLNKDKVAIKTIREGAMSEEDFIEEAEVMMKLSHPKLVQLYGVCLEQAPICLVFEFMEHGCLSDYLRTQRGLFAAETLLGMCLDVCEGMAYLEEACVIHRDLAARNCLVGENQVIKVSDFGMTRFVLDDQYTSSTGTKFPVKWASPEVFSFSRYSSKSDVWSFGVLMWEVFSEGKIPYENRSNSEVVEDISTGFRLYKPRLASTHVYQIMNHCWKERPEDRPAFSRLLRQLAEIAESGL

Row | IC50 [nM] | Compound
1 | 3 | Cc1cc2[nH]c(-c3n[nH]c4c3C[C@@H]3C[C@]3(C)C4)nc2cc1N(C)C(=O)[C@H](C)C1CCOCC1 [Example 4, (R)—N-methyl-N-(6-methyl-2-((4aS,5aR)-5a-methyl-1,4,4a,5,5a,6-hexahydrocyclopropa[f]indazol-3-yl)-1H-benzo[d]imidazol-5-yl)-2-(tetrahydro-2H-pyran-4-yl)propanamide]
2 | 5 | Cc1cc2[nH]c(-c3n[nH]c4c3C[C@@H]3C[C@]3(C)C4)nc2cc1N(C)C(=O)C(C)C1CCOCC1 (stereo partly drawn) [Example 5, N-methyl-N-(6-methyl-2-((4aS,5aR)-5a-methyl-1,4,4a,5,5a,6-hexahydrocyclopropa[f]indazol-3-yl)-1H-benzo[d]imidazol-5-yl)-2-(tetrahydro-2H-pyran-4-yl)propanamide]
3 | 11 | CCN(C(=O)[C@H](C)N1CCOCC1)c1cc2nc(-c3n[nH]c4c3C[C@@H]3C[C@]3(C)C4)[nH]c2cc1C [Example 6, (S)—N-ethyl-N-(6-methyl-2-((4aS,5aR)-5a-methyl-1,4,4a,5,5a,6-hexahydrocyclopropa[f]indazol-3-yl)-1H-benzo[d]imidazol-5-yl)-2-morpholinopropanamide]
4 | 7 | CN(C(=O)CC1CCOCC1)c1ccc2[nH]c(-c3n[nH]c4c3C[C@@H]3C[C@]3(C)C4)nc2c1 [Example 10, N-methyl-N-(2-((4aS,5aR)-5a-methyl-1,4,4a,5,5a,6-hexahydrocyclopropa[f]indazol-3-yl)-1H-benzo[d]imidazol-5-yl)-2-(tetrahydro-2H-pyran-4-yl)acetamide]
5 | 3 | C[C@@H](C(=O)N(C)c1cc(F)c2[nH]c(-c3n[nH]c4c3C[C@@H]3C[C@]3(C)C4)nc2c1)C1CCOCC1 [Example 12, (R)—N-(7-fluoro-2-((4aS,5aR)-5a-methyl-1,4,4a,5,5a,6-hexahydrocyclopropa[f]indazol-3-yl)-1H-benzo[d]imidazol-5-yl)-N-methyl-2-(tetrahydro-2H-pyran-4-yl)propanamide]
6 | 1 | C[C@@H](C(=O)N(C)c1ccc2[nH]c(-c3n[nH]c4c3C[C@@H]3C(F)(F)[C@]3(C)C4)nc2c1)N1CCOCC1 [Example 13, (S)—N-(2-((4aS,5aR)-5,5-difluoro-5a-methyl-1,4,4a,5,5a,6-hexahydrocyclopropa[f]indazol-3-yl)-1H-benzo[d]imidazol-5-yl)-N-methyl-2-morpholinopropanamide]
7 | 3 | C[C@@H](C(=O)N(C)c1ccc2[nH]c(-c3n[nH]c4c3C[C@@H]3C[C@]3(C)C4)nc2c1)N1CCOCC1 [Example 14, (S)—N-methyl-N-(2-((4aS,5aR)-5a-methyl-1,4,4a,5,5a,6-hexahydrocyclopropa[f]indazol-3-yl)-1H-benzo[d]imidazol-5-yl)-2-morpholinopropanamide]
8 | 4 | C[C@@H](C(=O)N(C)c1cc(F)c2[nH]c(-c3n[nH]c4c3C[C@@H]3C[C@]3(C)C4)nc2c1)N1CCOCC1 [Example 15, (S)—N-(7-fluoro-2-((4aS,5aR)-5a-methyl-1,4,4a,5,5a,6-hexahydrocyclopropa[f]indazol-3-yl)-1H-benzo[d]imidazol-5-yl)-N-methyl-2-morpholinopropanamide]
9 | 5 | CCN(C(=O)[C@H](C)N1CCOCC1)c1cc(F)c2[nH]c(-c3n[nH]c4c3C[C@@H]3C[C@]3(C)C4)nc2c1 [Example 16, (S)—N-ethyl-N-(7-fluoro-2-((4aS,5aR)-5a-methyl-1,4,4a,5,5a,6-hexahydrocyclopropa[f]indazol-3-yl)-1H-benzo[d]imidazol-5-yl)-2-morpholinopropanamide]
10 | 5 | C[C@@H](C(=O)N(C)c1cc2nc(-c3n[nH]c4c3C[C@@H]3C[C@]3(C)C4)[nH]c2cc1F)N1CCOCC1 [Example 17, (S)—N-(6-fluoro-2-((4aS,5aR)-5a-methyl-1,4,4a,5,5a,6-hexahydrocyclopropa[f]indazol-3-yl)-1H-benzo[d]imidazol-5-yl)-N-methyl-2-morpholinopropanamide]
11 | 9 | COc1cc2[nH]c(-c3n[nH]c4c3C[C@@H]3C[C@]3(C)C4)nc2cc1N(C)C(=O)[C@H](C)N1CCOCC1 [Example 19, (S)—N-(6-methoxy-2-((4aS,5aR)-5a-methyl-1,4,4a,5,5a,6-hexahydrocyclopropa[f]indazol-3-yl)-1H-benzo[d]imidazol-5-yl)-N-methyl-2-morpholinopropanamide]
12 | 5 | C[C@@H](C(=O)N(C)c1cc2nc(-c3n[nH]c4c3C[C@@H]3C[C@]3(C)C4)[nH]c2cc1Br)N1CCOCC1 [Example 20, (S)—N-(6-bromo-2-((4aS,5aR)-5a-methyl-1,4,4a,5,5a,6-hexahydrocyclopropa[f]indazol-3-yl)-1H-benzo[d]imidazol-5-yl)-N-methyl-2-morpholinopropanamide]
13 | 9 | C[C@@H](C(=O)N(C)c1cc2nc(-c3n[nH]c4c3C[C@@H]3C[C@]3(C)C4)[nH]c2cc1C#N)N1CCOCC1 [Example 21, (S)—N-(6-cyano-2-((4aS,5aR)-5a-methyl-1,4,4a,5,5a,6-hexahydrocyclopropa[f]indazol-3-yl)-1H-benzo[d]imidazol-5-yl)-N-methyl-2-morpholinopropanamide]
14 | 8 | C[C@@H](C(=O)N(C)c1cc2nc(-c3n[nH]c4c3C[C@@H]3C[C@]3(C)C4)[nH]c2c(F)c1F)N1CCOCC1 [Example 24, (S)—N-(6,7-difluoro-2-((4aS,5aR)-5a-methyl-1,4,4a,5,5a,6-hexahydrocyclopropa[f]indazol-3-yl)-1H-benzo[d]imidazol-5-yl)-N-methyl-2-morpholinopropanamide]
15 | 13 | CCN(C(=O)[C@H](C)N1CCOCC1)c1cc2nc(-c3n[nH]c4c3C[C@@H]3C[C@]3(C)C4)[nH]c2c(F)c1F [Example 25, (S)—N-(6,7-difluoro-2-((4aS,5aR)-5a-methyl-1,4,4a,5,5a,6-hexahydrocyclopropa[f]indazol-3-yl)-1H-benzo[d]imidazol-5-yl)-N-ethyl-2-morpholinopropanamide]
16 | 12 | Cc1cc2[nH]c(-c3n[nH]c4c3C[C@@H]3C[C@]3(C)C4)nc2cc1N(C)C(=O)CN1CCO[C@H](CO)C1 [Example 26, 2-((S)-2-(hydroxymethyl)morpholino)-N-methyl-N-(6-methyl-2-((4aS,5aR)-5a-methyl-1,4,4a,5,5a,6-hexahydrocyclopropa[f]indazol-3-yl)-1H-benzo[d]imidazol-5-yl)acetamide]
17 | 17 | Cc1cc2[nH]c(-c3n[nH]c4c3C[C@@H]3C[C@]3(C)C4)nc2cc1N(C)C(=O)CN1CCOC(CO)C1 (stereo partly drawn) [Example 27, 2-(2-(Hydroxymethyl)morpholino)-N-methyl-N-(6-methyl-2-((4aS,5aR)-5a-methyl-1,4,4a,5,5a,6-hexahydrocyclopropa[f]indazol-3-yl)-1H-benzo[d]imidazol-5-yl)acetamide]
18 | 19 | Cc1cc2[nH]c(-c3n[nH]c4c3C[C@@H]3C[C@]3(C)C4)nc2cc1N(C)C(=O)CN1CCO[C@@H](CO)C1 [Example 28, 2-((R)-2-(Hydroxymethyl)morpholino)-N-methyl-N-(6-methyl-2-((4aS,5aR)-5a-methyl-1,4,4a,5,5a,6-hexahydrocyclopropa[f]indazol-3-yl)-1H-benzo[d]imidazol-5-yl)acetamide]
19 | 12 | Cc1cc2[nH]c(-c3n[nH]c4c3C[C@@H]3C[C@]3(C)C4)nc2cc1N(C)C(=O)CN1CCOC(C)(C)C1 [Example 29, 2-(2,2-Dimethylmorpholino)-N-methyl-N-(6-methyl-2-((4aS,5aR)-5a-methyl-1,4,4a,5,5a,6-hexahydrocyclopropa[f]indazol-3-yl)-1H-benzo[d]imidazol-5-yl)acetamide]
20 | 15 | Cc1cc2[nH]c(-c3n[nH]c4c3C[C@@H]3C[C@]3(C)C4)nc2cc1N(C)C(=O)CN1CCO[C@H](C)C1 [Example 30, N-Methyl-N-(6-methyl-2-((4aS,5aR)-5a-methyl-1,4,4a,5,5a,6-hexahydrocyclopropa[f]indazol-3-yl)-1H-benzo[d]imidazol-5-yl)-2-((R)-2-methylmorpholino)acetamide]
21 | 13 | Cc1cc2[nH]c(-c3n[nH]c4c3C[C@@H]3C[C@]3(C)C4)nc2cc1N(C)C(=O)CN1CCO[C@@H](C)C1 [Example 31, N-Methyl-N-(6-methyl-2-((4aS,5aR)-5a-methyl-1,4,4a,5,5a,6-hexahydrocyclopropa[f]indazol-3-yl)-1H-benzo[d]imidazol-5-yl)-2-((S)-2-methylmorpholino)acetamide]

Source: patent US20230280220A1, “Benzimidazole Derivative Compounds and Uses Thereof” (Pfizer Inc., priority 2019, published 2023)
